Source: patent publication US20240000738A1, “HYDROXYSTEARIC ACID FOR INDUCING GENERATION OF ANTIMICROBIAL PEPTIDES” (Conopco, Inc., d/b/a UNILEVER, priority 2020, published 2024)

Legend:
Assay type in all cases: cell-based, Human
Psoriasin (S100A7) = test: AMP secretion from keratinocytes (Psoriasin ELISA); settings: NHEK cells, 72 h, ELISA of supernatant
Description: Psoriasin (S100A7) AMP from the above list was chosen to study the effect of concentration of 12-HSA on the secretion of the AMP. The procedure used was as follows: Normal Human Epidermal Keratinocyte cells (NHEK), EpiLife Keratinocyte Growth Medium (KGM) (with antibiotics Pen-Strep), Dulbecco's Phosphate Buffered Salone (DPBS), Trypsin-EDTA, Trypsin Neutralizer Solution, Ethanol, Psoriasin ELISA Kit. • 1. Thaw the NHEK cells and expand them in KGM in 2 -25 cc and then 75 cc flasks to 80% confluency, changing media every alternate day and incubating at 37° C. in a 5% CO2 incubator. • 2. Discard spent media and rinse the adhered cells in the flask with DPBS. Add Trypsin-EDTA and tap to dislodge the adhered cells. Add Trypsin Neutralizer and gently mix it. • 3. Transfer the contents to a 15-ml tube and spin down the cells. Discard supernatant and resuspend cells in KGM. Count and seed 30,000-50,000 cells per well in 24 well TC plates, incubate to 80-85% confluence (˜2-3 days). Change media every alternate day. Add differentiation media (KGM with 2 mM CaCl2) and incubate for 2-3 days. • 4. Prepare actives in KGM at the required concentration (final concentration of ethanol solvent, if used, should be less than 0.1%). • 5. Replace the differentiation media with the actives containing media and incubate for 72 h • 6. Collect supernatant and store at −80° C. Thaw them completely before performing ELISA to measure AMP (Psoriasin). • 7. For ELISA, run the required standards and samples (undiluted and diluted) and using standard plot, the amount of AMP in samples calculated.

RNase7 = test: AMP gene expression in keratinocytes (real time qPCR), RNase7; settings: NHEK cells, 12HSA at 1 μM (=0.00003 wt %), 24 h
Description: (§1) The following protocol was used for evaluating actives (12-HSA) on keratinocytes for AMP gene expression Normal Human Epidermal Keratinocyte cells (NHEK), EpiLife Keratinocyte Growth Medium (KGM) (with antibiotics Pen-Strep), Dulbecco's Phosphate Buffered Salone (DPBS), Trypsin-EDTA, Trypsin Neutralizer Solution, Ethanol, RNA extraction kit (RNeasy kit), RLT buffer, RT-PCR kit. • 1. Thaw the NHEK cells and expand them in KGM in 2-25 cc and then 75 cc flasks to 80% confluency, changing media every alternate day and incubating at 37° C. in a 5% CO2 incubator. • 2. Discard spent media and rinse the adhered cells in the flask with DPBS. Add Trypsin-EDTA and tap to dislodge the adhered cells. Add Trypsin Neutralizer and gently mix it. • 3. Transfer the contents to a 15-ml tube and spin down the cells. Discard supernatant and resuspend cells in KGM. Count and seed 30,000-50,000 cells per well in 24 well TC plates, incubate to 80-85% confluence (˜2-3 days). Change media every alternate day. Add differentiation media (KGM with 2 mM CaCl2) and incubate for 2-3 days. • 4. Prepare actives in KGM at the required concentration (final concentration of ethanol solvent, if used, should be less than 0.1%). • 5. […] Perform RNA extraction as per the kit, quantify the RNA, do cDNA synthesis and do real time qPCR for cDNA samples. […]

HBD-3 = test: AMP gene expression in keratinocytes (real time qPCR), HBD-3; settings: NHEK cells, 12HSA at 1 μM (=0.00003 wt %), 24 h
Description: as §1

S100A7 = test: AMP gene expression in keratinocytes (real time qPCR), S100A7; settings: NHEK cells, 12HSA at 1 μM (=0.00003 wt %), 24 h
Description: as §1

LL-37 = test: AMP gene expression in keratinocytes (real time qPCR), LL-37; settings: NHEK cells, 12HSA at 1 μM (=0.00003 wt %), 24 h
Description: as §1

For `CCCCCCC(O)CCCCCCCCCCC(=O)O` (centres unmarked) [12-HSA, 12-hydroxystearic acid], the “Fold change with respect to control (Psoriasin increase)” value (“Fold change … (Psoriasin increase)” for short) (Psoriasin (S100A7); 0.25 μM 12-HSA) was 8.12 fold, the “Fold change … (Psoriasin increase)” value (Psoriasin (S100A7); 0.50 μM 12-HSA) was 15.07 fold and the “Fold change … (Psoriasin increase)” value (Psoriasin (S100A7); 1.0 μM 12-HSA) was 9.79 fold. The “Fold change … (Psoriasin increase)” value (Psoriasin (S100A7); 2.0 μM 12-HSA) was 15.70 fold, the “Fold change with respect to control, AMP gene RNase7” value (RNase7) was 2.56 fold and the “Fold change with respect to control, AMP gene HBD-3” value (HBD-3) was 2.16 fold. The “Fold change with respect to control, AMP gene S100A7” value (S100A7) was 1.66 fold and the “Fold change with respect to control, AMP gene LL-37” value (LL-37) was 2.09 fold.
